Prothrombin time data for 1 compound are collected here from patent EP4737486A1, “HYALURONIC ACID DERIVATIVE, AND PREPARATION METHOD THEREFOR AND USE THEREOF” (priority 2023, dated 2025).

This data set deals with blood. Briefly: Anticoagulant activity by prothrombin time in rat blood (CoaguChek X). Set-up: species or system male SD rats. Particulars: 278 µg/mL in rat blood, n = 3; versus normal saline and no-addition groups. Here is the method:
The anticoagulant activity of the compound was assessed by measuring prothrombin time according to the reference [Sulakshan Sulakshana et al., Anesth Essays Res., 2021, 15(4): 341-347].
The experimental method and steps are as follows: • 1) About 2 mL of blood was obtained from the abdominal aorta of male SD rats (8 weeks old). One sample corresponded to one rat, and n = 3. • 2) Each substance was added to the blood at a concentration of 27.8 µg/mL or 278 µg/mL, and mixing was performed (generally, 27.8 µg/mL was used for transfusion). • 3) To assess the anticoagulant effect of the samples, prothrombin time was measured using CoaguChek X (Sekisui Medical).
• 1) Normal saline; • 2) Unfractionated heparin (UFH), sodium heparin injection 5000 units/5 mL, Mochida (average molecular weight: 15000); • 3) Fragmin: low molecular weight heparin, average molecular weight of 5000, 5000 units/5 mL; • 4) Arixtra: […], average molecular weight of 1728 (5 mers), 5000 units/5 mL; • 5) No addition.

Consider `CO[C@H]1O[C@H](COS(=O)(=O)O)[C@@H](O[C@@H]2O[C@@H](C(=O)O)[C@@H](O[C@H]3O[C@H](COS(=O)(=O)O)[C@@H](O[C@@H]4O[C@H](C(=O)O)[C@@H](O[C@H]5O[C@H](COS(=O)(=O)O)[C@@H](O)[C@H](O)[C@H]5NS(=O)(=O)O)[C@H](O)[C@H]4O)[C@H](OS(=O)(=O)O)[C@H]3NS(=O)(=O)O)[C@H](O)[C@H]2OS(=O)(=O)O)[C@H](O)[C@H]1NS(=O)(=O)O` [Arixtra], for which the prothrombin time entry was “significantly longer”.
